{"source": "patent US6996429B2", "about": "“Apparatus and method for detecting flinch response to nociceptive agents” (Regents of the Univeristy of California, San Diego, priority 2001, dated 2006)", "key": {"rat hind paw": {"tested_on": "rat hind paw", "details": "for Cumulative flinching behavior (Mean ± SD) Phase I / Cumulative flinching behavior (Mean ± SD) Phase II / Cumulative flinching behavior (Mean ± SD) Phase IIA / Cumulative flinching behavior (Mean ± SD) Phase IIB: N 12"}, "[1]": {"tested_on": "formalin induced flinching in the rat", "assay": "Effects of systemic and spinal drugs on formalin evoked flinching behavior (automated formalin test)", "format": "in vivo", "method": "To examine the effects of a drug on flinching behavior, rats received intraperitoneal or intrathecal injections of the drug. Intraperitoneal injections were delivered in volumes of 0.5 ml/kg.\nSolutions were prepared fresh daily.\nThe percent inhibition is computed by dividing the response of each animal in a given group by the respective vehicle control group and multiplying by 100.\n5. Test for intrathecal and intraperitoneal drugs on flinch behavior. […] Dose response curves of each agent were generated to relate drug effect to paw flinch and for comparison with previously reported data."}, "[2]": {"details": "Formalin, 0.5% vs. Formalin, 2.5%"}, "[3]": {"details": "No Injection vs. Formalin, 2.5%"}}, "note": "“Also recorded” adds a separate entry of the source. Read-outs that look alike come from different tables or passages of the source."}
{"smiles": "C=O", "note": "[Formalin]", "values": [{"measurement": "flinching behavior versus formalin concentration", "setting": "rat hind paw; 0.5%/50 μL to 5.0%/50 μL, all phases, compared to saline, 1-way ANOVA p<0.002", "result": "concentration-related increase in flinching behavior"}, {"measurement": "peak flinch rate Phase I", "setting": "rat hind paw; 100 male Sprague Dawly rats, Phase I", "result": "~50", "unit": "flinches/min"}, {"measurement": "peak flinch rate Phase II", "setting": "rat hind paw; 100 male Sprague Dawly rats, Phase II", "result": "~37", "unit": "flinches/min"}, {"measurement": "mean cumulative flinches (±SEM) Phase I", "setting": "rat hind paw; 100 male rats, Phase I (0–9 min)", "result": "203±9"}, {"measurement": "mean cumulative flinches (±SEM) Phase II", "setting": "rat hind paw; 100 male rats, Phase II", "result": "1058±39"}, {"measurement": "mean cumulative flinches (±SEM) Phase IIA", "setting": "rat hind paw; 100 male rats, Phase IIA (10–40 min)", "result": "792±27"}, {"measurement": "mean cumulative flinches (±SEM) Phase IIB", "setting": "rat hind paw; 100 male rats, Phase IIB (41–60 min)", "result": "266±16"}, {"measurement": "Post hoc group comparison Phase I", "setting": "rat hind paw; Formalin, 0.5% vs. Formalin, 2.5%, Phase I", "result": "S (S = Significant difference between groups, p < 0.05, Tukey/Kramer post hoc test.)"}, {"measurement": "Post hoc group comparison Phase II", "setting": "rat hind paw; Formalin, 0.5% vs. Formalin, 2.5%, Phase II", "result": "S (S = Significant difference between groups, p < 0.05, Tukey/Kramer post hoc test.)"}, {"measurement": "Post hoc group comparison Phase IIA", "setting": "rat hind paw; [2]", "result": "S (S = Significant difference between groups, p < 0.05, Tukey/Kramer post hoc test.)"}, {"measurement": "Post hoc group comparison Phase IIB", "setting": "rat hind paw; [2]", "result": "S (S = Significant difference between groups, p < 0.05, Tukey/Kramer post hoc test.)"}, {"measurement": "Post hoc group comparison Phase I", "setting": "rat hind paw; Formalin, 0.5% vs. Formalin, 5.0%, Phase I", "result": "S (S = Significant difference between groups, p < 0.05, Tukey/Kramer post hoc test.)"}, {"measurement": "Post hoc group comparison Phase II", "setting": "rat hind paw; Formalin, 0.5% vs. Formalin, 5.0%, Phase II", "result": "S (S = Significant difference between groups, p < 0.05, Tukey/Kramer post hoc test.)"}, {"measurement": "Post hoc group comparison Phase IIA", "setting": "rat hind paw; Formalin, 0.5% vs. Formalin, 5.0%", "result": "S (S = Significant difference between groups, p < 0.05, Tukey/Kramer post hoc test.)"}, {"measurement": "Cumulative flinching behavior (Mean ± SD) Phase I", "setting": "rat hind paw; Formalin, 0.5%, Phase I", "result": "127 ± 66"}, {"measurement": "Cumulative flinching behavior (Mean ± SD) Phase II", "setting": "rat hind paw; Formalin, 0.5%, Phase II", "result": "400 ± 185"}, {"measurement": "Cumulative flinching behavior (Mean ± SD) Phase IIA", "setting": "rat hind paw; Formalin, 0.5%", "result": "301 ± 169"}, {"measurement": "Cumulative flinching behavior (Mean ± SD) Phase IIB", "setting": "rat hind paw; Formalin, 0.5%", "result": "100 ± 79"}, {"measurement": "Post hoc group comparison Phase II", "setting": "rat hind paw; Formalin, 1.0% vs. Formalin, 2.5%, Phase II", "result": "S (S = Significant difference between groups, p < 0.05, Tukey/Kramer post hoc test.)"}, {"measurement": "Cumulative flinching behavior (Mean ± SD) Phase I", "setting": "rat hind paw; Formalin, 1.0%, Phase I", "result": "171 ± 55"}, {"measurement": "Cumulative flinching behavior (Mean ± SD) Phase II", "setting": "rat hind paw; Formalin, 1.0%, Phase II", "result": "613 ± 265"}, {"measurement": "Cumulative flinching behavior (Mean ± SD) Phase IIA", "setting": "rat hind paw; Formalin, 1.0%", "result": "495 ± 211"}, {"measurement": "Cumulative flinching behavior (Mean ± SD) Phase IIB", "setting": "rat hind paw; Formalin, 1.0%", "result": "118 ± 100"}, {"measurement": "Cumulative flinching behavior (Mean ± SD) Phase I", "setting": "rat hind paw; Formalin, 2.5%, Phase I", "result": "214 ± 75"}, {"measurement": "Cumulative flinching behavior (Mean ± SD) Phase II", "setting": "rat hind paw; Formalin, 2.5%, Phase II", "result": "898 ± 266"}, {"measurement": "Cumulative flinching behavior (Mean ± SD) Phase IIA", "setting": "rat hind paw; Formalin, 2.5%", "result": "662 ± 210"}, {"measurement": "Cumulative flinching behavior (Mean ± SD) Phase IIB", "setting": "rat hind paw; Formalin, 2.5%", "result": "236 ± 148"}, {"measurement": "Cumulative flinching behavior (Mean ± SD) Phase I", "setting": "rat hind paw; Formalin, 5.0%, Phase I", "result": "230 ± 84"}, {"measurement": "Cumulative flinching behavior (Mean ± SD) Phase II", "setting": "rat hind paw; Formalin, 5.0%, Phase II", "result": "811 ± 194"}, {"measurement": "Cumulative flinching behavior (Mean ± SD) Phase IIA", "setting": "rat hind paw; Formalin, 5.0%", "result": "659 ± 131"}, {"measurement": "Cumulative flinching behavior (Mean ± SD) Phase IIB", "setting": "rat hind paw; Formalin, 5.0%", "result": "152 ± 88"}, {"measurement": "Post hoc group comparison Phase II", "setting": "rat hind paw; No Injection vs. Formalin, 1.0%, Phase II", "result": "S (S = Significant difference between groups, p < 0.05, Tukey/Kramer post hoc test.)"}, {"measurement": "Post hoc group comparison Phase IIA", "setting": "rat hind paw; No Injection vs. Formalin, 1.0%", "result": "S (S = Significant difference between groups, p < 0.05, Tukey/Kramer post hoc test.)"}, {"measurement": "Post hoc group comparison Phase I", "setting": "rat hind paw; No Injection vs. Formalin, 2.5%, Phase I", "result": "S (S = Significant difference between groups, p < 0.05, Tukey/Kramer post hoc test.)"}, {"measurement": "Post hoc group comparison Phase II", "setting": "rat hind paw; No Injection vs. Formalin, 2.5%, Phase II", "result": "S (S = Significant difference between groups, p < 0.05, Tukey/Kramer post hoc test.)"}, {"measurement": "Post hoc group comparison Phase IIA", "setting": "rat hind paw; [3]", "result": "S (S = Significant difference between groups, p < 0.05, Tukey/Kramer post hoc test.)"}, {"measurement": "Post hoc group comparison Phase IIB", "setting": "rat hind paw; [3]", "result": "S (S = Significant difference between groups, p < 0.05, Tukey/Kramer post hoc test.)"}, {"measurement": "Post hoc group comparison Phase I", "setting": "rat hind paw; No Injection vs. Formalin, 5.0%, Phase I", "result": "S (S = Significant difference between groups, p < 0.05, Tukey/Kramer post hoc test.)"}, {"measurement": "Post hoc group comparison Phase II", "setting": "rat hind paw; No Injection vs. Formalin, 5.0%, Phase II", "result": "S (S = Significant difference between groups, p < 0.05, Tukey/Kramer post hoc test.)"}, {"measurement": "Post hoc group comparison Phase IIA", "setting": "rat hind paw; No Injection vs. Formalin, 5.0%", "result": "S (S = Significant difference between groups, p < 0.05, Tukey/Kramer post hoc test.)"}, {"measurement": "Post hoc group comparison Phase I", "setting": "rat hind paw; Saline vs. Formalin, 1.0%, Phase I", "result": "S (S = Significant difference between groups, p < 0.05, Tukey/Kramer post hoc test.)"}, {"measurement": "Post hoc group comparison Phase II", "setting": "rat hind paw; Saline vs. Formalin, 1.0%, Phase II", "result": "S (S = Significant difference between groups, p < 0.05, Tukey/Kramer post hoc test.)"}, {"measurement": "Post hoc group comparison Phase I", "setting": "rat hind paw; Saline vs. Formalin, 2.5%, Phase I", "result": "S (S = Significant difference between groups, p < 0.05, Tukey/Kramer post hoc test.)"}, {"measurement": "Post hoc group comparison Phase II", "setting": "rat hind paw; Saline vs. Formalin, 2.5%, Phase II", "result": "S (S = Significant difference between groups, p < 0.05, Tukey/Kramer post hoc test.)"}, {"measurement": "Post hoc group comparison Phase IIA", "setting": "rat hind paw; Saline vs. Formalin, 2.5%", "result": "S (S = Significant difference between groups, p < 0.05, Tukey/Kramer post hoc test.)"}, {"measurement": "Post hoc group comparison Phase IIB", "setting": "rat hind paw; Saline vs. Formalin, 2.5%", "result": "S (S = Significant difference between groups, p < 0.05, Tukey/Kramer post hoc test.)"}, {"measurement": "Post hoc group comparison Phase I", "setting": "rat hind paw; Saline vs. Formalin, 5.0%, Phase I", "result": "S (S = Significant difference between groups, p < 0.05, Tukey/Kramer post hoc test.)"}, {"measurement": "Post hoc group comparison Phase II", "setting": "rat hind paw; Saline vs. Formalin, 5.0%, Phase II", "result": "S (S = Significant difference between groups, p < 0.05, Tukey/Kramer post hoc test.)"}, {"measurement": "Post hoc group comparison Phase IIA", "setting": "rat hind paw; Saline vs. Formalin, 5.0%", "result": "S (S = Significant difference between groups, p < 0.05, Tukey/Kramer post hoc test.)"}, {"measurement": "formalin concentration at which the maximum (plateau) of flinching was observed", "setting": "rat hind paw; range 0.5 to 5%", "result": 2.5, "unit": "%"}]}
{"smiles": "C[C@]12N[C@H](Cc3ccccc31)c1ccccc12", "note": "[MK801]", "values": [{"measurement": "ED50 Phase II (Mean and 95% confidence intervals)", "setting": "[1]; IT (intrathecal), Phase II (10–60 min), from % MPE dose effect curves", "result": "9.5 (87-1.0) μg"}, {"measurement": "ED50 Phase IIA (Mean and 95% confidence intervals)", "setting": "[1]; IT (intrathecal), Phase IIA (10–40 min), from % MPE dose effect curves", "result": "7.3 (43-1.2) μg"}, {"measurement": "effect on the flinching response", "setting": "[1]; intrathecal injection", "result": "potent dose dependent reduction in Phase II but not Phase I"}, {"measurement": "effect on the flinching response", "setting": "[1]; systemic (intraperitoneal) injection", "result": "potent dose dependent reduction in Phase II but not Phase I"}, {"measurement": "flinching behavior at the lowest doses", "setting": "[1]; systemic delivery, lowest doses", "result": "apparent increase in flinching behavior at the lowest doses"}]}
{"smiles": "CN1CC[C@]23c4c5ccc(O)c4O[C@H]2[C@@H](O)C=C[C@H]3[C@H]1C5.O=S(=O)(O)O", "note": "[Morphine, morphine sulfate]", "values": [{"measurement": "effect on the flinching response", "setting": "[1]; intrathecal injection, sulfate", "result": "potent dose dependent reduction of all phases of the flinching response; also recorded: dose-dependent reduction in all phases of the response to formalin"}, {"measurement": "effect on the flinching response", "setting": "[1]; systemic (intraperitoneal) injection, sulfate", "result": "potent dose dependent reduction of all phases of the flinching response; also recorded: dose-dependent reduction in all phases of the response to formalin"}]}
